Results as given in ChEMBL document CHEMBL1201862, “PubChem BioAssay data set” (2004).
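Cultured in 96-well plates, cells were exposed to test compound for 48 hours across five concentrations. Abbreviation: GI50, concentration required for 50% inhibition of growth.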 Active and inactive are the calls of the source. No stated cut-off is given here; in the data, active = GI50 up to about 1.1 µM and inactive = higher. Peptide text beside a SMILES is read from it. * marks the point of attachment. Cbz = O=C(OCc1ccccc1)*

Key:
Assay in all cases: NCI-60 cell line screen, 48 h
786-0 = test system: 786-0
A498 = test system: A498
A549 = test system: A549
CCRF-CEM = test system: CCRF-CEM
EKVX = test system: EKVX
HCT-15 = test system: HCT-15
HT-29 = test system: HT-29
KM12 = test system: KM12
MOLT-4 = test system: MOLT-4
Malme-3M = test system: Malme-3M
NCI/ADR-RES = test system: NCI/ADR-RES
OVCAR-3 = test system: OVCAR-3
PC-3 = test system: PC-3
RXF 393 = test system: RXF 393
SK-MEL-28 = test system: SK-MEL-28
SK-OV-3 = test system: SK-OV-3
SNB-75 = test system: SNB-75
U-251 = test system: U-251
UACC-257 = test system: UACC-257
UO-31 = test system: UO-31

| SMILES | GI50 (786-0) | GI50 (A498) | GI50 (A549) | GI50 (CCRF-CEM) | GI50 (EKVX) | GI50 (HCT-15) [µM] | GI50 (HT-29) | GI50 (KM12) | GI50 (MOLT-4) | GI50 (Malme-3M) | GI50 (NCI/ADR-RES) | GI50 (OVCAR-3) | GI50 (PC-3) | GI50 (RXF 393) | GI50 (SK-MEL-28) | GI50 (SK-OV-3) | GI50 (SNB-75) | GI50 (U-251) | GI50 (UACC-257) | GI50 (UO-31) |
| --- | --- | --- | --- | --- | --- | --- | --- | --- | --- | --- | --- | --- | --- | --- | --- | --- | --- | --- | --- | --- |
| Nc1nc(Cl)c(Cl)c(NCC2(O)CCC2)n1 | > 100 µM (inactive) | 11.4 µM (inactive) | 76.4 µM (inactive) | > 100 µM (inactive) | 22 µM (inactive) | 38.9 | > 100 µM (inactive) | > 100 µM (inactive) | 33 µM (inactive) | 62.7 µM (inactive) | 45 µM (inactive) | 51.2 µM (inactive) | > 100 µM (inactive) | 38.4 µM (inactive) | > 100 µM (inactive) | 39.3 µM (inactive) | > 100 µM (inactive) | 92.7 µM (inactive) | > 100 µM (inactive) | 31.2 µM (inactive) |
| Cc1c(C)c(S(=O)(=O)N(CCCCCN)OCCCN)c(C)c2c1OC(C)(C)CC2 | 6.62 µM (inactive) | 18.6 µM (inactive) | 16 µM (inactive) | 2.6 µM (inactive) | 11.4 µM (inactive) | 18.6 | 13 µM (inactive) | 2.92 µM (inactive) | 3.76 µM (inactive) | 14.3 µM (inactive) | 20.6 µM (inactive) | 5.9 µM (inactive) | 4.06 µM (inactive) | 11.6 µM (inactive) | 18.9 µM (inactive) | 13.4 µM (inactive) | 6.4 µM (inactive) | 5.64 µM (inactive) | 13.8 µM (inactive) | 20.1 µM (inactive) |
| Cc1cc(Cl)ccc1C(=O)c1ccc2ccccc2c1C(=O)O | > 100 µM (inactive) | > 100 µM (inactive) | > 100 µM (inactive) | > 100 µM (inactive) |  | > 100 | > 100 µM (inactive) | > 100 µM (inactive) | > 100 µM (inactive) | > 100 µM (inactive) | > 100 µM (inactive) | > 100 µM (inactive) | > 100 µM (inactive) | 39.6 µM (inactive) | > 100 µM (inactive) |  | 85.3 µM (inactive) | > 100 µM (inactive) | > 100 µM (inactive) | > 100 µM (inactive) |
| Nc1cccc2cc(Cl)cnc12 | > 100 µM (inactive) | > 100 µM (inactive) | > 100 µM (inactive) | 16.1 µM (inactive) | > 100 µM (inactive) | > 100 | > 100 µM (inactive) | > 100 µM (inactive) | 37.2 µM (inactive) | > 100 µM (inactive) | > 100 µM (inactive) | 96.8 µM (inactive) | 97.1 µM (inactive) | > 100 µM (inactive) | > 100 µM (inactive) | > 100 µM (inactive) | 34.4 µM (inactive) | > 100 µM (inactive) | > 100 µM (inactive) | 26.7 µM (inactive) |
| O=c1oc2cccnc2n1CCN1CCN(c2ccc(Oc3ccccc3)cc2)CC1 | 20 µM (inactive) | 40.9 µM (inactive) | > 100 µM (inactive) | 7.21 µM (inactive) | > 100 µM (inactive) | 90.8 | 7.82 µM (inactive) |  | 19.7 µM (inactive) | 41.6 µM (inactive) | 32.5 µM (inactive) | 25.5 µM (inactive) | 34.4 µM (inactive) | > 100 µM (inactive) | > 100 µM (inactive) | > 100 µM (inactive) | 11.1 µM (inactive) | 56.9 µM (inactive) | 21.9 µM (inactive) | 41.1 µM (inactive) |
| Cc1cc(NCCCCCCCCCC[n+]2c(C)cc(N)c3ccccc32)c2ccccc2n1 | 1.78 µM (inactive) | 2.08 µM (inactive) | 0.378 µM (active) | 0.472 µM (active) |  | 3.95 |  | 0.2 µM (active) | 0.322 µM (active) | 1.82 µM (inactive) | 12.6 µM (inactive) | 0.975 µM (active) | 0.188 µM (active) | 4.1 µM (inactive) | 1.47 µM (inactive) | 1.11 µM (active) | 0.853 µM (active) | 0.069 µM (active) | 0.216 µM (active) | 5.52 µM (inactive) |
| CCOC(=O)C(C)NC(=O)C(C)NC(=O)C(C)NC(=O)C(C)NC(=O)C(C)NC(=O)C(C)NC(=O)C(C)NC(=O)OCc1ccccc1 (configuration not stated) (Cbz-AAAAAAA-OEt; configuration not given here) | > 100 µM (inactive) | 40.8 µM (inactive) | > 100 µM (inactive) |  | > 100 µM (inactive) | > 100 | > 100 µM (inactive) | > 100 µM (inactive) | > 100 µM (inactive) | > 100 µM (inactive) | > 100 µM (inactive) | > 100 µM (inactive) | > 100 µM (inactive) | > 100 µM (inactive) | > 100 µM (inactive) | > 100 µM (inactive) | > 100 µM (inactive) | > 100 µM (inactive) |  | > 100 µM (inactive) |
| CC(C)(/N=N/C(C)(C)C1=NCCN1)C1=NCCN1 | > 71.4 µM (inactive) | > 100 µM (inactive) |  | > 100 µM (inactive) | > 100 µM (inactive) | > 100 | > 100 µM (inactive) | > 100 µM (inactive) | > 100 µM (inactive) | > 100 µM (inactive) | > 100 µM (inactive) | > 100 µM (inactive) | > 100 µM (inactive) | > 100 µM (inactive) | > 100 µM (inactive) |  | > 100 µM (inactive) | > 100 µM (inactive) | > 100 µM (inactive) | > 74 µM (inactive) |
| COc1ccc(CNc2nc(NCc3ccc(OC)cc3)nc(NC(C)C)n2)cc1 | 7.91 µM (inactive) | 4.79 µM (inactive) | 6.24 µM (inactive) |  | 25 µM (inactive) | 4.12 | 5.41 µM (inactive) | 5.07 µM (inactive) | 42.7 µM (inactive) | 5 µM (inactive) | 4.58 µM (inactive) | 3.33 µM (inactive) | 3.3 µM (inactive) | 7.08 µM (inactive) | 46.8 µM (inactive) | 93.3 µM (inactive) | 7.08 µM (inactive) | 7.52 µM (inactive) | 7.85 µM (inactive) | 19.5 µM (inactive) |
| Cc1c(-c2ccc(O)c(O)c2)oc(=O)c2c(O)cccc12 | 9.73 µM (inactive) | 15 µM (inactive) | 7.93 µM (inactive) | 3.08 µM (inactive) | 8.87 µM (inactive) | 3.96 |  | 10.1 µM (inactive) | 3.02 µM (inactive) | 13.3 µM (inactive) | 10.5 µM (inactive) | 11.6 µM (inactive) | 12.9 µM (inactive) | 12.4 µM (inactive) |  | 6.04 µM (inactive) | 13.3 µM (inactive) | 12.1 µM (inactive) | 15.7 µM (inactive) | 11.1 µM (inactive) |
| C[C@@H](c1ccccc1)N1C[C@@H](c2ccc3c(c2)OCO3)[C@@H]2C(=O)CCC[C@@H]21 | 75.2 µM (inactive) | 28.6 µM (inactive) | 57.9 µM (inactive) | 61 µM (inactive) | 69.3 µM (inactive) | 61.2 | 98.9 µM (inactive) | 97.9 µM (inactive) | 30.3 µM (inactive) | 31.3 µM (inactive) | 81.7 µM (inactive) |  | 59.2 µM (inactive) | 88.5 µM (inactive) | 28.6 µM (inactive) | > 100 µM (inactive) | 36.4 µM (inactive) | 66.5 µM (inactive) | 50.2 µM (inactive) | 83 µM (inactive) |
| O=C(Nc1ccc(Br)cc1)c1c(-c2ccccc2)c2ccc(O)cc2oc1=O | > 10 µM (inactive) | > 10 µM (inactive) |  | > 10 µM (inactive) | > 10 µM (inactive) | > 10 | > 10 µM (inactive) | > 10 µM (inactive) | > 10 µM (inactive) | > 10 µM (inactive) | > 10 µM (inactive) | > 10 µM (inactive) | > 10 µM (inactive) | > 10 µM (inactive) | > 10 µM (inactive) | > 10 µM (inactive) | > 10 µM (inactive) | > 10 µM (inactive) | > 10 µM (inactive) | > 10 µM (inactive) |
| N#Cc1c(-c2ccc([N+](=O)[O-])cc2)cc(-c2ccc(Nc3ccnc4cc(C(F)(F)F)ccc34)cc2)[nH]c1=O | 51.9 µM (inactive) | > 100 µM (inactive) | > 100 µM (inactive) | > 100 µM (inactive) | > 100 µM (inactive) | > 100 | 92.9 µM (inactive) |  | > 100 µM (inactive) | > 100 µM (inactive) | > 100 µM (inactive) |  | > 100 µM (inactive) | > 100 µM (inactive) | > 100 µM (inactive) | > 100 µM (inactive) | > 100 µM (inactive) | 10 µM (inactive) | > 100 µM (inactive) | > 100 µM (inactive) |
| Cc1ccnc(NS(=O)(=O)c2ccc(N=[N+]=[N-])cc2)n1 | > 100 µM (inactive) | > 100 µM (inactive) | > 100 µM (inactive) | > 21.4 µM (inactive) | > 100 µM (inactive) | > 100 | > 100 µM (inactive) | > 100 µM (inactive) |  | > 67.9 µM (inactive) | > 100 µM (inactive) | > 100 µM (inactive) | > 100 µM (inactive) | > 100 µM (inactive) | > 100 µM (inactive) | > 100 µM (inactive) | > 100 µM (inactive) | > 100 µM (inactive) | > 100 µM (inactive) | > 100 µM (inactive) |
| Nc1nc(-c2ccccc2)c(CC(=O)O)s1 | > 100 µM (inactive) | > 100 µM (inactive) | > 100 µM (inactive) |  | > 100 µM (inactive) | > 100 | > 100 µM (inactive) | > 100 µM (inactive) | > 100 µM (inactive) | > 100 µM (inactive) | > 100 µM (inactive) | > 100 µM (inactive) | > 100 µM (inactive) | > 100 µM (inactive) | > 100 µM (inactive) | > 100 µM (inactive) | > 100 µM (inactive) | > 100 µM (inactive) | > 100 µM (inactive) | > 100 µM (inactive) |
